Target: T1, ADAM17 (Homo sapiens, UniProt P78536)
T1 construct: endogenous in cells; host or cells: iPSCs engineered with p1514 (ADAM17-cleavable membrane-tethered IL12 transgene at the AAVS1 locus)
Test: Flow cytometry for IL12 on the surface of p1514-engineered iPSCs after incubation with TAPI-1
Type: cell-based
Details: concentrations lower than 50 uM
Description: To confirm expression in cells engineered with the ADAM17 cleavable membrane tethered IL12 (p1514; FIG. 1B), the iPSCs were incubated with different concentrations of the ADAM17 inhibitor TAPI-1 and then analyzed by flow cytometry for IL12 detection on the surface of the engineered iPSCs.
Lower concentrations had no effect on cell health or tmIL12 detection)

T1 sequence (P78536 215-824): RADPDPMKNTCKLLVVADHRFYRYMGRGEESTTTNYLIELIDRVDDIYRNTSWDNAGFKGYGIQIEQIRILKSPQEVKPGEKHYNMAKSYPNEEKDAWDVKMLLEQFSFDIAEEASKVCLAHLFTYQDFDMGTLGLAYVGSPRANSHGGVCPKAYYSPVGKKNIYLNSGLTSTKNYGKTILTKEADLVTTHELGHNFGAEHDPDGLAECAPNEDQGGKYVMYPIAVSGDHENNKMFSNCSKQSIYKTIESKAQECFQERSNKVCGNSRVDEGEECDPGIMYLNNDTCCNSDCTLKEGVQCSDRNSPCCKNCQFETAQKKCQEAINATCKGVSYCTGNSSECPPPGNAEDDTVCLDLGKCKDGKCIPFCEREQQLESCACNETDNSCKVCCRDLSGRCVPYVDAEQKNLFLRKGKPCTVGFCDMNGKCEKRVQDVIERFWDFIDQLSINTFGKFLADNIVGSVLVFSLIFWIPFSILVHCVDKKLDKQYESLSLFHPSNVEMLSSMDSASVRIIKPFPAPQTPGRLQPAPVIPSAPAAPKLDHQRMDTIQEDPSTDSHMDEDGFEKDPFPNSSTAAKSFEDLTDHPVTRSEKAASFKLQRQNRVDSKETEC

## CC(C)C[C@H](CC(=O)NO)C(=O)N[C@@H](Cc1ccc2ccccc2c1)C(=O)N[C@@H](C)C(=O)NCCN [TAPI-1]
  tmIL12 detection on surface of engineered iPSCs: no effect
Engineered iPSCs
  cell health: no effect

Reference: patent US20250360210A1, “IMMUNOEFFECTOR CELLS DERIVED FROM INDUCED PLURIPOTENT STEM CELLS GENETICALLY ENGINEERED WITH MEMBRANE BOUND IL12 AND USES THEREOF” (Century Therapeutics, Inc., priority 2022, published 2025)
